Experimental data as given in patent US6548472B1, “Liquid cleaning compositions comprising 2-bromo-2-nitro-1,3 propanediol” (Colgate-Palmolive Co., priority 2001, dated 2003).

Tested on: mixture of bacteria
Assay: D-value method test (rapid preservation screening, bacteria growth detection time by conductometry)
Type: cell-based
Settings: FIG. 1; sodium gluconate (formula B) compared with Na4EDTA (formula A, reference)
Description: This D-value method test is used for rapid screening. It compares the new product to a reference which gives satisfactory result in real life conditions and which must have a formula composition as close as possible to the tested product (in this example EDTA has been replaced by sodium gluconate). The tested product and the reference are inoculated by a mixture of bacteria. Once they have been inoculated the bacteria slowly disappear due to the beneficial influence of the preservative system. The longer the contact time, the lower the residual bacteria number. The better the preservation system, the lower the residual bacteria number at a given time. The inocculated products are then sampled at different times and the samples are diluted by a nutriant which helps bacteria proliferation. The time needed to detect bacteria in the diluted sample is then measured by conductometry (bacteria growth generally leads to a increase of conductivity). The longer the detection time in sample diluted by nutrient, the lower the residual alive bacteria number after sampling, the better the preservative system.

Structure (SMILES): O=C([O-])[C@H](O)[C@@H](O)[C@H](O)[C@H](O)CO.[Na+] [sodium gluconate]
- D bacteria values: Myacid BT potentiator performance: superior Myacid BT potentiator
